Measurements taken from US9795140B2, “Molecules having pesticidal utility, and intermediates, compositions, and processes, related thereto” (priority 2015, dated 2017).

Assays:
Format in all cases: in vivo
[1] = tested on: Beet Armyworm (Spodoptera exigua, LAPHEG); test: Bioassay on Beet Armyworm (BAW), 128-well diet tray assay; conditions: 168 h, 50 μg/cm^2 on artificial diet, second instar larvae, 25° C., five to seven days, average of eight wells, read-out: BAW % Control (or Mortality) rating
Description: (§1) Certain molecules disclosed in this document were tested against BAW and CL using procedures described in the following examples. In the reporting of the results, the “BAW & CL Rating Table” was used (See Table Section).
Bioassays on BAW were conducted using a 128-well diet tray assay. One to five second instar BAW larvae were placed in each well (3 mL) of the diet tray that had been previously filled with approximately 1.5 mL of artificial diet to which 50 μg/cm^2 of the test molecule (dissolved in 50 μL of 90:10 acetone-water mixture) had been applied (to each of eight wells) and then allowed to dry. Trays were covered with a clear self-adhesive cover, vented to allow gas exchange, and held at 25° C., 14:10 light-dark for five to seven days. Percent mortality was recorded for the larvae in each well; activity in the eight wells was then averaged. The results are indicated in the table entitled “Table ABC: Biological Results” (See Table Section).

[2] = tested on: Cabbage Looper (Trichoplusia ni, TRIPNI); test: Bioassay on Cabbage Looper (CL), 128-well diet tray assay; conditions: 168 h, 50 μg/cm^2 on artificial diet, second instar larvae, 25° C., five to seven days, average of eight wells, read-out: CL % Control (or Mortality) rating
Description: as §1
Bioassays on CL were conducted using a 128-well diet tray assay, one to five second instar CL larvae were placed in each well (3 mL) of the diet tray that had been previously filled with 1 mL of artificial diet to which 50 μg/cm^2 of the test molecule (dissolved in 50 μL of 90:10 acetone-water mixture) had been applied (to each of eight wells) and then allowed to dry. Trays were covered with a clear self-adhesive cover, vented to allow gas exchange, and held at 25° C., 14:10 light-dark for five to seven days. Percent mortality was recorded for the larvae in each well; activity in the eight wells was then averaged. The results are indicated in the table entitled “Table ABC: Biological Results” (See Table Section).

[3] = tested on: Yellow Fever Mosquito (Aedes aegypti, AEDSAE); test: Bioassay on Yellow Fever Mosquito (YFM) larvae, 96-well plate; conditions: about 1 day-old larvae, room temperature, 3 days, scored on mortality
Description: Certain molecules disclosed in this document were tested against YFM using procedures described in the following paragraph. In the reporting of the results, the “GPA & YFM Rating Table” was used (See Table Section).
Master plates containing 400 μg of a molecule dissolved in 100 μL of dimethyl sulfoxide (DMSO) (equivalent to a 4000 ppm solution) are used. A master plate of assembled molecules contains 15 μL per well. To this plate, 135 μL of a 90:10 water/acetone mixture is added to each well. A robot is programmed to dispense 15 μL aspirations from the master plate into an empty 96-well shallow plate (“daughter” plate). There are 6 reps (“daughter” plates) created per master. The created “daughter” plates are then immediately infested with YFM larvae.
The day before plates are to be treated, mosquito eggs are placed in Millipore water containing liver powder to begin hatching (4 g. into 400 mL). After the “daughter” plates are created using the robot, they are infested with 220 μL of the liver powder/larval mosquito mixture (about 1 day-old larvae). After plates are infested with mosquito larvae, a non-evaporative lid is used to cover the plate to reduce drying. Plates are held at room temperature for 3 days prior to grading. After 3 days, each well is observed and scored based on mortality. The results are indicated in the table entitled “Table ABC: Biological Results” (See Table Section).

COc1c(Cl)cc([C@H]2[C@H](C(=O)Nc3ccc(Cl)c(C(=O)NCC(F)(F)F)c3)C2(Cl)Cl)cc1Cl (relative stereo) [F87, trans-2-Chloro-5-(2,2-dichloro-3-(3,5-dichloro-4-methoxyphenyl)cyclopropane-1-carboxamido)-N-(2,2,2-trifluoroethyl)benzamide]
mortality at 50 µg/cm2 [1]: 50 to 100% | mortality at 50 µg/cm2 [2]: 50 to 100% | YFM % Control (or Mortality) rating [3]: B (More than 0-Less than 80)

COc1c(Cl)cc([C@H]2[C@H](C(=O)Nc3ccc(Cl)c(C(=O)NCCC(F)(F)F)c3)C2(Cl)Cl)cc1Cl (relative stereo) [F88, trans-2-Chloro-5-(2,2-dichloro-3-(3,5-dichloro-4-methoxyphenyl)cyclopropane-1-carboxamido)-N-(3,3,3-trifluoropropyl)benzamide]
mortality at 50 µg/cm2 [1]: 50 to 100% | mortality at 50 µg/cm2 [2]: 50 to 100% | YFM % Control (or Mortality) rating [3]: B (More than 0-Less than 80)

CCNC(=O)c1cc(NC(=O)[C@H]2[C@H](c3cc(Cl)cc(Cl)c3)C2(Cl)Cl)cc(Cl)c1Cl (relative stereo) [F91, trans-2,3-Dichloro-5-(2,2-dichloro-3-(3,5-dichlorophenyl)cyclopropane-1-carboxamido)-N-ethylbenzamide]
mortality at 50 µg/cm2 [1]: 50 to 100% | mortality at 50 µg/cm2 [2]: 50 to 100% | YFM % Control (or Mortality) rating [3]: A (80-100)

O=C(NCCF)c1cc(NC(=O)[C@H]2[C@H](c3cc(Cl)cc(Cl)c3)C2(Cl)Cl)cc(Cl)c1Cl (relative stereo) [F92, trans-2,3-Dichloro-5-(2,2-dichloro-3-(3,5-dichlorophenyl)cyclopropane-1-carboxamido)-N-(2-fluoroethyl)benzamide]
mortality at 50 µg/cm2 [1]: 50 to 100% | mortality at 50 µg/cm2 [2]: 50 to 100% | YFM % Control (or Mortality) rating [3]: A (80-100)

O=C(NCCC(F)(F)F)c1cc(NC(=O)[C@H]2[C@H](c3cc(Cl)cc(Cl)c3)C2(Cl)Cl)cc(Cl)c1Cl (relative stereo) [F94, trans-2,3-Dichloro-5-(2,2-dichloro-3-(3,5-dichlorophenyl)cyclopropane-1-carboxamido)-N-(3,3,3-trifluoropropyl)benzamide]
mortality at 50 µg/cm2 [1]: 50 to 100% | mortality at 50 µg/cm2 [2]: 50 to 100% | YFM % Control (or Mortality) rating [3]: A (80-100)

CCCNC(=O)c1cc(NC(=O)[C@H]2[C@H](c3cc(Cl)cc(Cl)c3)C2(Cl)Cl)cc(Cl)c1Cl (relative stereo) [F95, trans-2,3-Dichloro-5-(2,2-dichloro-3-(3,5-dichlorophenyl)cyclopropane-1-carboxamido)-N-propylbenzamide]
mortality at 50 µg/cm2 [1]: 50 to 100% | mortality at 50 µg/cm2 [2]: 50 to 100% | YFM % Control (or Mortality) rating [3]: A (80-100)

CC(NC(=O)c1cc(NC(=O)[C@H]2[C@H](c3cc(Cl)cc(Cl)c3)C2(Cl)Cl)ccc1Cl)c1ccc(F)cc1 (relative stereo) [F96, 2-chloro-5-(trans-2,2-dichloro-3-(3,5-dichlorophenyl)cyclopropane-1-carboxamido)-N-(1-(4-fluorophenyl)ethyl)benzamide]
mortality at 50 µg/cm2 [1]: 50 to 100% | mortality at 50 µg/cm2 [2]: 50 to 100% | YFM % Control (or Mortality) rating [3]: A (80-100)

CC(C)(NC(=O)c1cc(NC(=O)[C@H]2[C@H](c3cc(Cl)cc(Cl)c3)C2(Cl)Cl)ccc1Cl)c1ccc(F)cc1 (relative stereo) [F97, 2-Chloro-5-(trans-2,2-dichloro-3-(3,5-dichlorophenyl)cyclopropane-1-carboxamido)-N-(2-(4-fluorophenyl)propan-2-yl)benzamide]
mortality at 50 µg/cm2 [1]: 50 to 100% | mortality at 50 µg/cm2 [2]: 50 to 100% | YFM % Control (or Mortality) rating [3]: A (80-100)

CCNC(=O)c1cc(NC(=O)[C@H]2[C@H](c3cc(Cl)cc(Cl)c3)C2(Cl)Cl)c(Cl)cc1Cl (relative stereo) [F98, trans-2,4-Dichloro-5-(2,2-dichloro-3-(3,5-dichlorophenyl)cyclopropane-1-carboxamido)-N-ethylbenzamide]
mortality at 50 µg/cm2 [1]: 0 to 50% | mortality at 50 µg/cm2 [2]: 0% | YFM % Control (or Mortality) rating [3]: A (80-100)

O=C(NCCF)c1cc(NC(=O)[C@H]2[C@H](c3cc(Cl)cc(Cl)c3)C2(Cl)Cl)c(Cl)cc1Cl (relative stereo) [F99, trans-2,4-Dichloro-5-(2,2-dichloro-3-(3,5-dichlorophenyl)cyclopropane-1-carboxamido)-N-(2-fluoroethyl)benzamide]
mortality at 50 µg/cm2 [1]: 50 to 100% | mortality at 50 µg/cm2 [2]: 50 to 100% | YFM % Control (or Mortality) rating [3]: A (80-100)

O=C(NCC(F)(F)F)c1cc(NC(=O)[C@H]2[C@H](c3cc(Cl)cc(Cl)c3)C2(Cl)Cl)c(Cl)cc1Cl (relative stereo) [F100, trans-2,4-Dichloro-5-(2,2-dichloro-3-(3,5-dichlorophenyl)cyclopropane-1-carboxamido)-N-(2,2,2-trifluoroethyl)benzamide]
mortality at 50 µg/cm2 [1]: 50 to 100% | mortality at 50 µg/cm2 [2]: 0% | YFM % Control (or Mortality) rating [3]: A (80-100)

CCCNC(=O)c1cc(NC(=O)[C@H]2[C@H](c3cc(Cl)cc(Cl)c3)C2(Cl)Cl)c(Cl)cc1Cl (relative stereo) [F101, trans-2,4-Dichloro-5-(2,2-dichloro-3-(3,5-dichlorophenyl)cyclopropane-1-carboxamido)-N-propylbenzamide]
mortality at 50 µg/cm2 [1]: 0% | mortality at 50 µg/cm2 [2]: 0% | YFM % Control (or Mortality) rating [3]: D (No activity noticed in this bioassay)

O=C(NCCC(F)(F)F)c1cc(NC(=O)[C@H]2[C@H](c3cc(Cl)cc(Cl)c3)C2(Cl)Cl)c(Cl)cc1Cl (relative stereo) [F102, trans-2,4-Dichloro-5-(2,2-dichloro-3-(3,5-dichlorophenyl)cyclopropane-1-carboxamido)-N-(3,3,3-trifluoropropyl)benzamide]
mortality at 50 µg/cm2 [1]: 0 to 50% | mortality at 50 µg/cm2 [2]: 0% | YFM % Control (or Mortality) rating [3]: A (80-100)

CCNC(=O)c1cc(NC(=O)[C@H]2[C@H](c3ccc(F)c(Cl)c3)C2(Cl)Cl)ccc1Cl (relative stereo) [F103, trans-2-Chloro-5-(2,2-dichloro-3-(3-chloro-4-fluorophenyl)cyclopropane-1-carboxamido)-N-ethylbenzamide]
mortality at 50 µg/cm2 [1]: 50 to 100% | mortality at 50 µg/cm2 [2]: 50 to 100% | YFM % Control (or Mortality) rating [3]: A (80-100)

O=C(NCCF)c1cc(NC(=O)[C@H]2[C@H](c3ccc(F)c(Cl)c3)C2(Cl)Cl)ccc1Cl (relative stereo) [F104, trans-2-Chloro-5-(2,2-dichloro-3-(3-chloro-4-fluorophenyl)cyclopropane-1-carboxamido)-N-(2-fluoroethyl)benzamide]
mortality at 50 µg/cm2 [1]: 50 to 100% | mortality at 50 µg/cm2 [2]: 50 to 100% | YFM % Control (or Mortality) rating [3]: A (80-100)

O=C(NCC(F)(F)F)c1cc(NC(=O)[C@H]2[C@H](c3ccc(F)c(Cl)c3)C2(Cl)Cl)ccc1Cl (relative stereo) [F105, trans-2-Chloro-5-(2,2-dichloro-3-(3-chloro-4-fluorophenyl)cyclopropane-1-carboxamido)-N-(2,2,2-trifluoroethyl)benzamide]
mortality at 50 µg/cm2 [1]: 50 to 100% | mortality at 50 µg/cm2 [2]: 50 to 100% | YFM % Control (or Mortality) rating [3]: A (80-100)

CCCNC(=O)c1cc(NC(=O)[C@H]2[C@H](c3ccc(F)c(Cl)c3)C2(Cl)Cl)ccc1Cl (relative stereo) [F106, trans-2-Chloro-5-(2,2-dichloro-3-(3-chloro-4-fluorophenyl)cyclopropane-1-carboxamido)-N-propylbenzamide]
mortality at 50 µg/cm2 [1]: 50 to 100% | mortality at 50 µg/cm2 [2]: 50 to 100% | YFM % Control (or Mortality) rating [3]: A (80-100)

O=C(NCCC(F)(F)F)c1cc(NC(=O)[C@H]2[C@H](c3ccc(F)c(Cl)c3)C2(Cl)Cl)ccc1Cl (relative stereo) [F107, trans-2-Chloro-5-(2,2-dichloro-3-(3-chloro-4-fluorophenyl)cyclopropane-1-carboxamido)-N-(3,3,3-trifluoropropyl)benzamide]
mortality at 50 µg/cm2 [1]: 50 to 100% | mortality at 50 µg/cm2 [2]: 50 to 100% | YFM % Control (or Mortality) rating [3]: B (More than 0-Less than 80)
